What all share (assay type): cell-based
In assay [1] the test system is Mero82 cells. The assay can be described thus: Mero82 proliferation and cell viability assay (CTG). To be noted: Mero82 cell line, 144 hours. As for the experimental part:
Mero 82 cells were trypsinised, counted and plated at 400 cells/well in 200 μl of growth media in 96 well flat bottom tissue culture treated plates. The plated cells were incubated overnight at 37° C., 5% CO2 before being treated with compounds in triplicate for each assay point. 50 μl of the serially diluted compound was added to each well giving a final DMSO concentration of 0.5% per well and a total volume of 250 μl per well. The treated cells were incubated for 144 hours (6 days) at 37° C., 5% CO2. Following compound treatment, the remaining viable cells were detected using the Promega CellTiter-Glo 2.0 assay as follows: 150 μl of media was removed from each of the wells to be assayed and 100 μl of room temperature CellTiter-Glo 2.0 reagent was added. The plate was placed on an orbital shaker at 500 rpm at room temperature for 2 minutes, and then incubated without shaking for a further 10 minutes at room temperature. 150 μl of cell lysate was removed from each well and dispensed into a single well of a white opaque 96 well plate. Luminescence at 545 nm was read using a BMG CLARIOstar plate reader. The luminescent signal was directly proportional to number of viable cells, the percent of viable cells relative to the DMSO control was then calculated for each assay point. Percent viability relative to DMSO control is plotted against compound concentration and a curve fitted with non-linear regression in GraphPad Prism software. IC50 values were calculated using GraphPad Prism software as follows: For Relative IC50 values a non-constrained four-parameter logistic curve fit was used (Sigmoidal, 4PL, X is concentration). For Absolute IC50 values the baseline was constrained to Y=0 (Absolute IC50, X is concentration). Area Under the Curve (AUC): Prism computes area-under-the-curve by the trapezoidal method. The analysis sees a fitted curve as simply a series of connected XY points. Prism simply computes the area under the “curve” defined by connecting the points by straight lines. The units of the AUC are the units of the Y axis times units of the X axis.

The subject of assay [2] is SDM103T2 cells. Briefly: SDM103T2 proliferation and cell viability assay (CTG). Particulars: SDM103T2 cell line, 144 hours. As for the experimental part: SDM103T2 cells were trypsinised, counted and plated at the specified cell density in 200 μl of growth media in 96 well flat bottom tissue culture treated plates. The plated cells were incubated overnight at 37° C., 5% CO2 before being treated with compounds in triplicate for each assay point. 50 μl of the serially diluted compound was added to each well giving a final DMSO concentration of 0.5% per well and a total volume of 250 μl per well. The treated cells were incubated for 144 hours (6 days) at 37° C., 5% CO2. Following compound treatment the remaining viable cells were detected using the Promega CellTiter-Glo 2.0 assay as follows: 150 μl of media was removed from each of the wells to be assayed and 100 μl of room temperature CellTiter-Glo 2.0 reagent was added. The plate was placed on an orbital shaker at 500 rpm at room temperature for 2 minutes, and then incubated without shaking for a further 10 minutes at room temperature. 150 μl of cell lysate was removed from each well and dispensed into a single well of a white opaque 96 well plate. Luminescence at 545 nm was read using a BMG CLARIOstar plate reader. The luminescent signal was directly proportional to number of viable cells, the percent of viable cells relative to the DMSO control was then calculated for each assay point. Percent viability relative to DMSO control was plotted against compound concentration and a curve fitted with non-linear regression in GraphPad Prism software. EC50 and IC50 values were calculated using GraphPad Prism software as follows: For EC50 values a non-constrained four-parameter logistic curve fit was used (Sigmoidal, 4PL, X is concentration). For Absolute IC50 values the baseline was constrained to Y=0 (Absolute IC50, X is concentration). Area Under the Curve (AUC): Prism computes area-under-the-curve by the trapezoidal method. The analysis sees a fitted curve as simply a series of connected XY points. Prism simply computes the area under the “curve” defined by connecting the points by straight lines. The units of the AUC are the units of the Y axis times units of the X axis.

Assay [3] has as its system BHY cells. The assay can be described thus: BHY proliferation and cell viability assay (CTG). To be noted: BHY cell line. Here is the method: BHY cells were trypsinised, counted and plated at the specified cell density in 200 μl of growth media in 96 well flat bottom tissue culture treated plates. The plated cells were incubated overnight at 37° C., 5% CO2 before being treated with compounds in triplicate for each assay point. 50 μl of the serially diluted compound was added to each well giving a final DMSO concentration of 0.5% per well and a total volume of 250 μl per well. The treated cells were incubated for 144 hours (6 days) at 37° C., 5% CO2. Following compound treatment, the remaining viable cells were detected using the Promega CellTiter-Glo 2.0 assay as follows: 150 μl of media was removed from each of the wells to be assayed and 100 μl of room temperature CellTiter-Glo 2.0 reagent was added. The plate was placed on an orbital shaker at 500 rpm at room temperature for 2 minutes, and then incubated without shaking for a further 10 minutes at room temperature. 150 μl of cell lysate was removed from each well and dispensed into a single well of a white opaque 96 well plate. Luminescence at 545 nm was read using a BMG CLARIOstar plate reader. The luminescent signal was directly proportional to number of viable cells, the percent of viable cells relative to the DMSO control was then calculated for each assay point. Percent viability relative to DMSO control was plotted against compound concentration and a curve fitted with non-linear regression in GraphPad
Prism software. EC50 and IC50 values are calculated using GraphPad Prism software as follows: For EC50 values, a non-constrained four-parameter logistic curve fit was used (Sigmoidal, 4PL, X is concentration). For Absolute IC50 values the baseline was constrained to Y=0 (Absolute IC50, X is concentration). Area Under the Curve (AUC): Prism computes area-under-the-curve by the trapezoidal method. The analysis sees a fitted curve as simply a series of connected XY points. Prism simply computes the area under the “curve” defined by connecting the points by straight lines. The units of the AUC are the units of the Y axis times units of the X axis.

As to `C[C@H](NC(=O)c1cnc2c(C3=CC[C@@H](C(F)(F)F)CC3)cccc2c1)c1ncco1` (single isomer, unassigned) [Compound 19, N-(1-(oxazol-2-yl)ethyl)-8-(4-(trifluoromethyl)cyclohex-1-en-1-yl)quinoline-3-carboxamide], the EC50 in assay [1], in assay [2] and in assay [3] (144 hours) was less than 200 nM each time.

`C[C@H](NC(=O)c1cnc2c(C3=CC[C@@H](C(F)(F)F)CC3)cccc2c1)c1ncco1` (single isomer, unassigned) [Compound 20, N-(1-(oxazol-2-yl)ethyl)-8-(4-(trifluoromethyl)cyclohex-1-en-1-yl)quinoline-3-carboxamide]: in assay [3] (144 h), the EC50 is less than 200 nM.

`FC(F)(F)c1ccc(CN2CCC(C3CC(Br)=NO3)CC2)cc1` (stereo not drawn) [Compound 1-2, reference compound]: the EC50 in assay [1], in assay [2] and in assay [3] (144 h) was more than 1000 nM in each case.

In the case of `C=CC(=O)Nc1ccc(C)c(Oc2ccc(Cl)cc2)c1` [Compound 1-3, reference compound], the EC50 in assay [1], in assay [2] and in assay [3] (144 h) was less than 200 nM throughout.

With `C[C@H](CO)NC(=O)c1cnc2c(C3=CCC(C(F)(F)F)CC3)cccc2c1` (stereo partly drawn) [Compound 7, N—((R)-1-hydroxypropan-2-yl)-8-(4-(trifluoromethyl)cyclohex-1-en-1-yl)quinoline-3-carboxamide], the EC50 in assay [1], in assay [2] and in assay [3] (144 h) was less than 200 nM each time.

As to `O=C(NCc1ncco1)c1cnc2c(C3=CCC(C(F)(F)F)CC3)cccc2c1` (stereo not drawn) [Compound 11, N-(oxazol-2-ylmethyl)-8-(4-(trifluoromethyl)cyclohex-1-en-1-yl)quinoline-3-carboxamide], the EC50 in assay [1] and in assay [2] was less than 200 nM in each case.

Regarding `O=C(NCc1ccn[nH]1)c1cnc2c(C3=CCC(C(F)(F)F)CC3)cccc2c1` (stereo not drawn) [Compound 47, N-((1H-pyrazol-5-yl)methyl)-8-(4-(trifluoromethyl)cyclohex-1-en-1-yl)quinoline-3-carboxamide], the EC50 in assay [1], in assay [2] and in assay [3] (144 h) was less than 200 nM each time.

Regarding `COC[C@H](CO)NC(=O)c1cnc2c(C3=CCC(C(F)(F)F)CC3)cccc2c1` (stereo partly drawn) [Compound 62, N—((S)-1-hydroxy-3-methoxypropan-2-yl)-8-(4-(trifluoromethyl)cyclohex-1-en-1-yl)quinoline-3-carboxamide], the EC50 in assay [1], in assay [2] and in assay [3] (144 h) was less than 200 nM throughout.

In the case of `COc1cc(C2=CCC(C(F)(F)F)CC2)c2ncc(C(=O)N[C@H](C)c3ncco3)cc2c1` (stereo partly drawn) [Compound 109, 6-methoxy-N—((R)-1-(oxazol-2-yl)ethyl)-8-(4-(trifluoromethyl)cyclohex-1-en-1-yl)quinoline-3-carboxamide], the EC50 in assay [1], in assay [2] and in assay [3] (144 h) was less than 200 nM each time.

As to `COc1cc(C2=CCC(C(F)(F)F)CC2)c2ncc(C(=O)N[C@H](C)CO)cc2c1` (stereo partly drawn) [Compound 110, N—((R)-1-hydroxypropan-2-yl)-6-methoxy-8-(4-(trifluoromethyl)cyclohex-1-en-1-yl)quinoline-3-carboxamide], the EC50 in assay [1] and in assay [2] was less than 200 nM in each case.

For the molecule `C[C@H](CO)NC(=O)c1cnc2c(C3=CCC4(CC3)CC(F)(F)C4)cccc2c1` [Compound 165, (R)-8-(2,2-difluorospiro[3.5]non-6-en-7-yl)-N-(1-hydroxypropan-2-yl)quinoline-3-carboxamide], the EC50 in assay [1] and in assay [2] was less than 200 nM throughout.

Take `C[C@@H](NC(=O)c1cnc2c(C3=CCC4(CC3)CC4)cccc2c1)c1ncco1` [Compound 166, (R)—N-(1-(oxazol-2-yl)ethyl)-8-(spiro[2.5]oct-5-en-6-yl)quinoline-3-carboxamide]: the EC50 in assay [1] and in assay [2] was less than 200 nM in each case.

The values above are taken from patent publication US20250223306A1, “TEAD INHIBITORS AND METHODS OF USE” (Sporos BioDiscovery, Inc., priority 2022, published 2025).
